From patent publication US20260232578A1, “COMPOSITIONS AND METHODS FOR TRANSMUCOSAL ABSORPTION” (Tonix Pharma Limited, priority 2012, published 2026)

Key:
[1] = target: T1, adrenergic alpha-2A receptor (Alpha2A) (Homo sapiens, UniProt P08913); assay: Equilibrium receptor binding, recombinant human receptor
T1 construct: expressed in transfected cells
T1 sequence (P08913 1-465): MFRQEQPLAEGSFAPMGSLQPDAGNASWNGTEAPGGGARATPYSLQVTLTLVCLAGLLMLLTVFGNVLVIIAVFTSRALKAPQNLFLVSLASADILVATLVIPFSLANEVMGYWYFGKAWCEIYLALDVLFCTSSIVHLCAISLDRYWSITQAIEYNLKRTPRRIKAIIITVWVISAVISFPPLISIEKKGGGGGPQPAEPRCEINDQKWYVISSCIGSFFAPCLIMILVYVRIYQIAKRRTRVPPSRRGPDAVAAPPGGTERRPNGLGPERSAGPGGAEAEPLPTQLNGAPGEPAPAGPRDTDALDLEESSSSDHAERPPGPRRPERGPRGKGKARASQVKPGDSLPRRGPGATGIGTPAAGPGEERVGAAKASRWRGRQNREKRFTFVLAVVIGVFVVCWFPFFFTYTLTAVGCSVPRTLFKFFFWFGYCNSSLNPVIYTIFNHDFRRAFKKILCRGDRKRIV

[2] = target: T2, adrenergic alpha-2B receptor (Alpha2B) (Homo sapiens, UniProt P18089); assay: as above
T2 construct: expressed in transfected cells

dopamine D1 receptor [3] = target: T3, dopamine D1 receptor (Homo sapiens, UniProt P21728); assay: as above
T3 construct: expressed in transfected cells

D4.4 = target: T4, D4.4 (Homo sapiens, UniProt P21917); assay: as above
T4 construct: expressed in transfected cells

D5 = D5 (Homo sapiens, UniProt P21918); assay: as above
5-HT7 = target: T5, 5-HT7 (Homo sapiens, UniProt P34969); assay: as above
T5 construct: expressed in transfected cells

[4] = target: norepinephrine (NE) transporter (Homo sapiens, UniProt P23975); assay: Equilibrium binding to transporters (FIG. 19); details: Norepinephrine TP (transporter)
histamine H1 receptor = target: T6, histamine H1 receptor (Homo sapiens, UniProt P35367); assay: G-protein-dependent signal transduction, intracellular Ca2+ mobilization; type: cell-based; details: for IC50: H1, Ca2+ mobilization, read-out: IC50, functional antagonist
T6 construct: expressed in transfected cells

adrenergic α1A receptor = target: T7, adrenergic α1A receptor (Homo sapiens, UniProt P35348); assay: as above; type: cell-based; details: for IC50: α1A, Ca2+ mobilization, read-out: IC50, functional antagonist
T7 construct: expressed in transfected cells
T7 sequence (P35348 1-466): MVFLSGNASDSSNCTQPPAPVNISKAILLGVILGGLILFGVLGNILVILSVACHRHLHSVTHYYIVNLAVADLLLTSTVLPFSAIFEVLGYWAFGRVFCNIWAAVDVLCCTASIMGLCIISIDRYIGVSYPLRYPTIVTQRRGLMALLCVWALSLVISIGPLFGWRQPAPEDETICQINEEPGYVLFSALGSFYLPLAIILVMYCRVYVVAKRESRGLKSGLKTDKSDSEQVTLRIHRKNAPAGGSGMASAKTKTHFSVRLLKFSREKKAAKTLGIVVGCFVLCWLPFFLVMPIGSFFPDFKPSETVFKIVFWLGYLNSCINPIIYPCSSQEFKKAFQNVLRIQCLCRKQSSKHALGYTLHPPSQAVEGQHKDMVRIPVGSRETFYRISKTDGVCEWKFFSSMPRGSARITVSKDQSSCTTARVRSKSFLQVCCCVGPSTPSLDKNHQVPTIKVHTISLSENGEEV

dopamine D1 receptor [5] = target: T3, dopamine D1 receptor; assay: G-protein-dependent signal transduction (Ca2+ mobilization, cAMP production or inositol triphosphate turnover); type: cell-based; details: for IC50: read-out: IC50 (nM) (Antagonist)
adrenergic α1B receptor = target: T8, adrenergic α1B receptor (Homo sapiens, UniProt P35368); assay: G-protein-independent signal transduction, β-arrestin signaling; type: cell-based; details: for IC50: α1B, β-arrestin signaling, read-out: IC50, functional antagonist
T8 construct: expressed in transfected cells
T8 sequence (P35368 1-520): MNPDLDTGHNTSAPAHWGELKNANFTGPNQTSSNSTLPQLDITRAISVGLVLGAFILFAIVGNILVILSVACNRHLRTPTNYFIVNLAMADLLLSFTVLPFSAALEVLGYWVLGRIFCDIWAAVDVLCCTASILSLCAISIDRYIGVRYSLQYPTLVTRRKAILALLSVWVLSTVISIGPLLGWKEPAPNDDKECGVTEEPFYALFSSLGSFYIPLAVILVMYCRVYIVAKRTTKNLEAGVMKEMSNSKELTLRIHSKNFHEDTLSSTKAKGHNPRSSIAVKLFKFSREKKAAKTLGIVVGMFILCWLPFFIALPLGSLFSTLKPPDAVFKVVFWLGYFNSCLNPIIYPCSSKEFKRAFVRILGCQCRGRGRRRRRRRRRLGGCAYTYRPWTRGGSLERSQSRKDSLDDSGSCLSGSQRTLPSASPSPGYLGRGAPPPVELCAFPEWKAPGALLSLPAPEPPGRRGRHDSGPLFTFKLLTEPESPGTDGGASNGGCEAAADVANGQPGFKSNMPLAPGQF

muscarinic M1 receptor = target: T9, muscarinic M1 receptor (Homo sapiens, UniProt P11229)
T9 sequence (P11229 1-460): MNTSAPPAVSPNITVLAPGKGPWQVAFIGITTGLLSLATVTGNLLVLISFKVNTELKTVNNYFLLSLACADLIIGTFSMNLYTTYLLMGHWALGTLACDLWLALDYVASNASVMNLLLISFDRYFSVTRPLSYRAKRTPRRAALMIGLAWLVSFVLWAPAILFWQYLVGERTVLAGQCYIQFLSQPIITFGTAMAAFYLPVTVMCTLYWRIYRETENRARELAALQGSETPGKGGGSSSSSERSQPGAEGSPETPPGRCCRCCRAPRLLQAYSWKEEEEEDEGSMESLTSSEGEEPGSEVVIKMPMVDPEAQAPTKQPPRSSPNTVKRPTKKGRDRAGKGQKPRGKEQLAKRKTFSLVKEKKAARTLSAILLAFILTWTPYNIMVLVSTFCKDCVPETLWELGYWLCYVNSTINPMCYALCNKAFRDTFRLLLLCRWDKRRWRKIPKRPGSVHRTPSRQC

dopamine (D) transporter = dopamine (D) transporter (Homo sapiens, UniProt Q01959); assay: biochemical
Chain of dopamine (D) transporter (Q01959 whole entry): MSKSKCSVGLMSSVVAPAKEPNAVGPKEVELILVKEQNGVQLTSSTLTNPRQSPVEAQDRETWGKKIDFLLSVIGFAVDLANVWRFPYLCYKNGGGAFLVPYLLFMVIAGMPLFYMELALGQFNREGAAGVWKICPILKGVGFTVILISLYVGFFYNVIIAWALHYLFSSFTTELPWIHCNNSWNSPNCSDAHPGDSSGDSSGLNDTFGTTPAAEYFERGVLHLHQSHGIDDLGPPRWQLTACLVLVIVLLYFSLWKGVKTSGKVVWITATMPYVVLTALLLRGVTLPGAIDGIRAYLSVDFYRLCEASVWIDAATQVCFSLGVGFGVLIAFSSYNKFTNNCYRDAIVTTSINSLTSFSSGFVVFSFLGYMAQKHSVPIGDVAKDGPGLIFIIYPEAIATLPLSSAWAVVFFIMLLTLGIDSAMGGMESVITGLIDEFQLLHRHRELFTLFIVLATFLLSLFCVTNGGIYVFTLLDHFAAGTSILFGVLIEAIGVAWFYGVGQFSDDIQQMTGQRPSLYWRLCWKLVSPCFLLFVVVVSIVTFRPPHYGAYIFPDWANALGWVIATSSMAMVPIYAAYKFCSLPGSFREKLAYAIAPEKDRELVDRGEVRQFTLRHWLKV

T3 sequence (P21728 whole entry): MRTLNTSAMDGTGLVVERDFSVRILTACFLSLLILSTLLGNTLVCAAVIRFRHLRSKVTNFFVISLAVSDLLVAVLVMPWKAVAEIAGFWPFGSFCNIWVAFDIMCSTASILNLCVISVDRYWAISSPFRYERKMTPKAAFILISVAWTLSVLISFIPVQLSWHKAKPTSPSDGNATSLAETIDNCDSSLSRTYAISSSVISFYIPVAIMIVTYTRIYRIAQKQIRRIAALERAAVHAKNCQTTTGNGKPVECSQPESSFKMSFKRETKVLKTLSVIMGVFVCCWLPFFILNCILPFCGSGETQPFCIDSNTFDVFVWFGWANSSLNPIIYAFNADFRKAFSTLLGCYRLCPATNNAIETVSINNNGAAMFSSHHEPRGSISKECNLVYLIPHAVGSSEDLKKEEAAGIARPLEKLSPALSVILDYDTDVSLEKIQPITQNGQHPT
T6 sequence (P35367 whole entry): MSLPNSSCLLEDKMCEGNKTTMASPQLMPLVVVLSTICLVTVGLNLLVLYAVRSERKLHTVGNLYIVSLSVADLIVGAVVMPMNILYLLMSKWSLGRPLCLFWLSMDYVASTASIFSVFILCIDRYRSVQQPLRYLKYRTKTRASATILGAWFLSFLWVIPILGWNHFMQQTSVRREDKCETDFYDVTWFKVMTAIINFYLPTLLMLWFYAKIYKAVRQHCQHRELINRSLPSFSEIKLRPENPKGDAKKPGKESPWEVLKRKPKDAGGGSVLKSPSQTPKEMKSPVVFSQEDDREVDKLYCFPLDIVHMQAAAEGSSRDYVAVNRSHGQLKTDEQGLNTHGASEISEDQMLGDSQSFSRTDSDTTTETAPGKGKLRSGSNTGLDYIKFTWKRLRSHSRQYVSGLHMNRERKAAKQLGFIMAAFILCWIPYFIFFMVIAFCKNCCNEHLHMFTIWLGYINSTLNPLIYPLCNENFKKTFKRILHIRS
T2 sequence (P18089 whole entry): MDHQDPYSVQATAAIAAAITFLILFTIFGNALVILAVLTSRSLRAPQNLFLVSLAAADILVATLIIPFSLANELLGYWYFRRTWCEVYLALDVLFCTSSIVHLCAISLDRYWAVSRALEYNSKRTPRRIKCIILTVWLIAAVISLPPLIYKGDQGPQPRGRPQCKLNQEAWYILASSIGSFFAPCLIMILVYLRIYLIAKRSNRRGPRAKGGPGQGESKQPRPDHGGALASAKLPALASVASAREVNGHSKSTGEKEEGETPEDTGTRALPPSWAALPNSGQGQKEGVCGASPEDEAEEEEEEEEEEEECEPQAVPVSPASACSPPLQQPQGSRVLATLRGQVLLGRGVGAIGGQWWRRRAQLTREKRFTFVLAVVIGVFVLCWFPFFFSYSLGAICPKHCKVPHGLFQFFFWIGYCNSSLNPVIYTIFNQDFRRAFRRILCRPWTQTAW
Chain of D5 (P21918 whole entry): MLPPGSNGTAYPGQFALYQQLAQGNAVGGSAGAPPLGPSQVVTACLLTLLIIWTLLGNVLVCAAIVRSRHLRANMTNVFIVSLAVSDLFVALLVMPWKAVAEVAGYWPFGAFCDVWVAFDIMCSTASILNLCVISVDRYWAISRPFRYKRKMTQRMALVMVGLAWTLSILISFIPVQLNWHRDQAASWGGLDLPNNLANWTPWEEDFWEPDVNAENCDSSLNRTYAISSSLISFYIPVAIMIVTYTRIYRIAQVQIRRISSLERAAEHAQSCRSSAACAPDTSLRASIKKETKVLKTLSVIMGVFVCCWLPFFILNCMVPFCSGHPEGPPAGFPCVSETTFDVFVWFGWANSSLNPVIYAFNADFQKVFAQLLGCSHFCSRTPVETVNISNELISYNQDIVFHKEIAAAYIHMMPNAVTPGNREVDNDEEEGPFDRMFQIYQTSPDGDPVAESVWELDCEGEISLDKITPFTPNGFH
T4 sequence (P21917 whole entry): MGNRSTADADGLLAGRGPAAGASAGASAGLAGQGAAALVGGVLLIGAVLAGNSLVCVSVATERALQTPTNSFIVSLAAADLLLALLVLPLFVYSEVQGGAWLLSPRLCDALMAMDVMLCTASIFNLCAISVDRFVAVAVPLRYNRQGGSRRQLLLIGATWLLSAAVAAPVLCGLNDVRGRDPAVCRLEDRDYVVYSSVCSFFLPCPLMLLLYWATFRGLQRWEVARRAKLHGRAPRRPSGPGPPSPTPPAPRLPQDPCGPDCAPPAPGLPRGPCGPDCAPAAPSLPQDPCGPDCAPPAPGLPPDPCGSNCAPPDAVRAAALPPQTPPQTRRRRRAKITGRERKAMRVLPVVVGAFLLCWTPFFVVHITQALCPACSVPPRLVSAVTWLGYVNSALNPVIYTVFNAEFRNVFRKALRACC
T5 sequence (P34969 whole entry): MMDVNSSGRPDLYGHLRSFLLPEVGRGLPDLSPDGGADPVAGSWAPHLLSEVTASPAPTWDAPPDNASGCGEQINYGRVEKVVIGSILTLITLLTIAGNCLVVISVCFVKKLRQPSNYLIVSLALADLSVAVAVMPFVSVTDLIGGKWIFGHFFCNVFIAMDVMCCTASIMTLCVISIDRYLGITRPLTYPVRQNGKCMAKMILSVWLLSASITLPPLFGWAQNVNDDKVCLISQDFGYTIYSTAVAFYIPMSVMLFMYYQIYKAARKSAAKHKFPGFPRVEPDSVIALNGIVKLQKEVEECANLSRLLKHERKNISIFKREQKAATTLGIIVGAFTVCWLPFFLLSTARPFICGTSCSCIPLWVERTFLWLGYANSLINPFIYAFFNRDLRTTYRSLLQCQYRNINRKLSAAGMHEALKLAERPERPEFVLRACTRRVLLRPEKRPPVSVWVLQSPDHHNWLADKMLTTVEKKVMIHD
Chain of norepinephrine (NE) transporter (P23975 whole entry): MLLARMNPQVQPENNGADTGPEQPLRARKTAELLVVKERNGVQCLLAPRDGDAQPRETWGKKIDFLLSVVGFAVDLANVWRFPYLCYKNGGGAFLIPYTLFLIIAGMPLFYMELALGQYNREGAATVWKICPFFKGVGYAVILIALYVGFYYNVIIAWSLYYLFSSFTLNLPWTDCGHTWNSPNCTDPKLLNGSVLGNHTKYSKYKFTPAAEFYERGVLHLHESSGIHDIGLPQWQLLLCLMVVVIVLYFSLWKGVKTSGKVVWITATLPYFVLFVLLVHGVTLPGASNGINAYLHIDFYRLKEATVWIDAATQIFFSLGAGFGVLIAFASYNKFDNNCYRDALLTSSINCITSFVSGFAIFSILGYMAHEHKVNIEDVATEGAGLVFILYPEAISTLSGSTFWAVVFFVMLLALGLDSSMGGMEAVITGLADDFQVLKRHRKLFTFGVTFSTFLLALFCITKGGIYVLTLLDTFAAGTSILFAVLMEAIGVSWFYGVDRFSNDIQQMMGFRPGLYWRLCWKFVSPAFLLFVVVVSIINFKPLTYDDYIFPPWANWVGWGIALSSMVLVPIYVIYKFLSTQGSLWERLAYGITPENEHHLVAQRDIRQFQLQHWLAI

CNCCC=C1c2ccccc2C=Cc2ccccc21 [norcyclobenzaprine, 3-(5H-dibenzo[a,d]cyclohepten-5-ylidene)-N-methyl-1-propanamine]
Ki [1]: 1800 nM | Ki [2]: 150 nM | Ki (dopamine D1 receptor [3]): 57 nM | Hill plot ratio (Hill slope) (dopamine D1 receptor [3]; equilibrium binding): 1.15 | Ki (D4.4): 250 nM | Ki (D5): 280 nM | Ki (5-HT7): 140 nM | Ki [4]: 2.6 nM | Four parameter Hill slope (or fit slope) ratio; Ca2+ signaling (histamine H1 receptor; H1): 0.79 | IC50 (histamine H1 receptor): 16 nM | IC50 (adrenergic α1A receptor): 16 nM | Four parameter Hill slope (or fit slope) ratio; Ca2+ signaling (adrenergic α1A receptor; α-1A): 2.27 | Four parameter Hill slope (or fit slope) ratio; Ca2+ signaling (dopamine D1 receptor [5]): 0.98 | IC50 (dopamine D1 receptor [5]): 300 nM | IC50 (adrenergic α1B receptor): 173 nM | Four parameter Hill slope (or fit slope) ratio; β-arrestin signaling (adrenergic α1B receptor; α-1B): 0.70 | Hill plot ratio (Hill slope) (muscarinic M1 receptor): 0.70 | Ki (dopamine (D) transporter): > 10000 nM

CN(C)CCC=C1c2ccccc2C=Cc2ccccc21 [cyclobenzaprine, 3-(5H-dibenzo[a,d]cyclohepten-5-ylidene)-N,N-dimethyl-1-propanamine]
Ki [1]: 360 nM | Ki [2]: 21 nM | Ki (dopamine D1 receptor [3]): 12 nM | Ki (D4.4): 180 nM | Ki (D5): 60 nM | Ki (5-HT7): 67 nM | Ki [4]: 35 nM | IC50 (histamine H1 receptor): 5.2 nM | IC50 (adrenergic α1A receptor): 4.9 nM | IC50 (dopamine D1 receptor [5]): 65 nM | IC50 (adrenergic α1B receptor): 144 nM | Ki (dopamine (D) transporter): > 10000 nM
